From patent USRE40086E1, “Method for treating bacterial infection with novel 7-substituted-9-substituted amino 6-demethyl-6-deoxytetracyclines” (Wyeth Holdings Corporation, priority 1991, dated 2008)

Assays:
Type in all cases: cell-based
E. coli J2175 = assay: MIC, agar dilution (Table IA); conditions: unit assumed
[1] = tested on: S. aureus UBMS 88-7 (tetK); assay: MIC, agar dilution; conditions: S. aureus UBMS 88-7 TetK; Table IA; unit assumed
[2] = tested on: E. coli UBMS 89-2 (Sensitive); assay: MIC, agar dilution; conditions: E. coli UBMS 89-2 Tet Sens.; Table IA; unit assumed
E. coli UBMS 90-5 = assay: MIC, agar dilution (Table IA); conditions: unit assumed
S. aureus NEMC 8769/89-4 = assay: MIC, agar dilution (Table IA); conditions: unit assumed
E. faecalis ATCC 29212 = assay: MIC, agar dilution; conditions: E. faecalis ATCC 29212; Table IA; unit assumed
E. coli PRP1 TetA = assay: MIC, agar dilution (Table IA); conditions: unit assumed
[3] = tested on: X. maltophilia NEMC 87210; assay: MIC, agar dilution (Table IA); conditions: unit assumed
E. coli BAJ9003 = assay: MIC, agar dilution (Table IA); conditions: unit assumed
[4] = tested on: S. aureus UBMS 90-3 (Sensitive); assay: MIC, agar dilution; conditions: S. aureus UBMS 90-3; Table IA; unit assumed
[5] = tested on: Ps. acruginosa ATCC 27853; assay: MIC, agar dilution (Table IA); conditions: unit assumed
E. coli J3272 TetC = assay: MIC, agar dilution (Table IA); conditions: unit assumed
[6] = tested on: S. aureus Smith (Sensitive); assay: MIC, agar dilution; conditions: S. aureus SMITH (MP); Table IA; unit assumed
E. coli MC4100 TetB = assay: MIC, agar dilution (Table IA); conditions: unit assumed
[7] = tested on: S. haemolyticus AVAH 88-3; assay: MIC, agar dilution; conditions: S. hemolyticus AVHAH 88-3; Table IA; unit assumed
E. faecalis 12201 = assay: MIC, agar dilution; conditions: Enterococcus 12201; Table IA; unit assumed
[8] = tested on: S. aureus ATCC 29213 (Sensitive); assay: MIC, agar dilution; conditions: S. aureus ATCC 29213; Table IA; unit assumed
S. aureus ROSE (MP) = assay: MIC, agar dilution (Table IA); conditions: unit assumed
E. coli #311 (MP) = assay: MIC, agar dilution (Table IA); conditions: unit assumed
E. coli ATCC 25922 = assay: MIC, agar dilution; conditions: E. coli ATCC 25922; Table IA; unit assumed
[9] = tested on: S. aureus IVES 1983 (meth. resistant); assay: MIC, agar dilution; conditions: S. aureus IVES 1983; Table IA; unit assumed
[10] = tested on: S. aureus UBMS 90-1 (tetM); assay: MIC, agar dilution; conditions: S. aureus UBMS 90-1 TetM; Table IA; unit assumed
E. coli UBMS 89-1 (tetM) = assay: MIC, agar dilution; conditions: E. coli UBMS 89-1 TetM; Table IA; unit assumed
[11] = tested on: S. aureus IVES 2943 (meth. resistant); assay: MIC, agar dilution; conditions: S. aureus IVES 2943; Table IA; unit assumed
E. coli J3272 TetD = assay: MIC, agar dilution (Table IA); conditions: unit assumed
S. mariescens FDOR 8733 = assay: MIC, agar dilution (Table IA); conditions: unit assumed
E. coli UBMS 88-1 (tetB) = assay: MIC, agar dilution; conditions: E. coli UBMS 88-1 TetB; Table IA; unit assumed
[12] = tested on: S. aureus UBMS 90-2 (tetM); assay: MIC, agar dilution; conditions: S. aureus UBMS 90-2 TetM; Table IA; unit assumed
[13] = tested on: S. aureus UBMS 88-4 (Sensitive); assay: MIC, agar dilution; conditions: S. aureus UBMS 88-4; Table IA; unit assumed
E. coli J3272 Tet sens. = assay: MIC, agar dilution (Table IA); conditions: unit assumed
[14] = tested on: S. aureus UBMS 88-5 (tetM); assay: MIC, agar dilution; conditions: S. aureus UBMS 88-5 TetM; Table IA; unit assumed
E. coli UBMS 90-4 (tetM) = assay: MIC, agar dilution; conditions: E. coli UBMS 90-4 TetM; Table IA; unit assumed

| Compound | Antibacterial activity (MIC) (E. coli J2175) | Antibacterial activity (MIC) [1] | Antibacterial activity (MIC) [2] | Antibacterial activity (MIC) (E. coli UBMS 90-5) | Antibacterial activity (MIC) (S. aureus NEMC 8769/89-4) | Antibacterial activity (MIC) (E. faecalis ATCC 29212) | Antibacterial activity (MIC) (E. coli PRP1 TetA) | Antibacterial activity (MIC) [3] | Antibacterial activity (MIC) (E. coli BAJ9003) | Antibacterial activity (MIC) [4] | Antibacterial activity (MIC) [5] | Antibacterial activity (MIC) (E. coli J3272 TetC) | Antibacterial activity (MIC) [6] | Antibacterial activity (MIC) (E. coli MC4100 TetB) | Antibacterial activity (MIC) [7] | Antibacterial activity (MIC) (E. faecalis 12201) | Antibacterial activity (MIC) [8] | Antibacterial activity (MIC) (S. aureus ROSE (MP)) | Antibacterial activity (MIC) (E. coli #311 (MP)) | Antibacterial activity (MIC) (E. coli ATCC 25922) | other results |
| --- | --- | --- | --- | --- | --- | --- | --- | --- | --- | --- | --- | --- | --- | --- | --- | --- | --- | --- | --- | --- | --- |
| CN(C)c1cc(NC(=O)CBr)c(O)c2c1CC1CC3[C@H](N(C)C)C(O)=C(C(N)=O)C(=O)[C@@]3(O)C(O)=C1C2=O.Cl.Cl (stereo partly drawn) [III, [4S-(4alpha,12aalpha)]-9-[(Bromoacetyl)amino)-4,7-bis(dimethylamino)-1,4,4a,5,5a,6,11,12a-octahydro-3,10,12,12a-tetrahydroxy-1,11-dioxo-2-naphthacenecarboxamide dihydrochloride] | 32 µg/mL | 2 µg/mL | 32 µg/mL | 16 µg/mL | 0.12 µg/mL | 0.5 µg/mL | > 32 µg/mL | 4 µg/mL | 0.25 µg/mL | 0.5 µg/mL | > 32 µg/mL | > 32 µg/mL | 0.5 µg/mL | > 32 µg/mL | 2 µg/mL | 1 µg/mL | 0.5 µg/mL | 8 µg/mL | 8 µg/mL | 16 µg/mL | Antibacterial activity (MIC) [9]: 4 µg/mL; Antibacterial activity (MIC) [10]: 1 µg/mL; Antibacterial activity (MIC) (E. coli UBMS 89-1 (tetM)): 4 µg/mL; Antibacterial activity (MIC) [11]: 4 µg/mL; Antibacterial activity (MIC) (E. coli J3272 TetD): 32 µg/mL; Antibacterial activity (MIC) (S. mariescens FDOR 8733): > 32 µg/mL; Antibacterial activity (MIC) (E. coli UBMS 88-1 (tetB)): > 32 µg/mL; Antibacterial activity (MIC) [12]: 0.5 µg/mL; Antibacterial activity (MIC) [13]: 0.5 µg/mL; Antibacterial activity (MIC) (E. coli J3272 Tet sens.): 16 µg/mL; Antibacterial activity (MIC) [14]: 1 µg/mL |
| Br.CC(Br)C(=O)Nc1cc(N(C)C)c2c(c1O)C(=O)C1=C(O)C3(O)C(=O)C(C(N)=O)=C(O)C(N(C)C)C3CC1C2 (stereo not shown) [JJJ] | > 32 µg/mL | 16 µg/mL | > 32 µg/mL | > 32 µg/mL | 4 µg/mL | 16 µg/mL | > 32 µg/mL | 16 µg/mL | 4 µg/mL | 2 µg/mL | > 32 µg/mL | > 32 µg/mL | 4 µg/mL | > 32 µg/mL | 16 µg/mL | 16 µg/mL | 4 µg/mL | > 32 µg/mL | > 32 µg/mL | > 32 µg/mL | Antibacterial activity (MIC) [9]: 32 µg/mL; Antibacterial activity (MIC) [10]: 16 µg/mL; Antibacterial activity (MIC) (E. coli UBMS 89-1 (tetM)): 32 µg/mL; Antibacterial activity (MIC) [11]: 32 µg/mL; Antibacterial activity (MIC) (E. coli J3272 TetD): > 32 µg/mL; Antibacterial activity (MIC) (S. mariescens FDOR 8733): > 32 µg/mL; Antibacterial activity (MIC) (E. coli UBMS 88-1 (tetB)): > 32 µg/mL; Antibacterial activity (MIC) [12]: 8 µg/mL; Antibacterial activity (MIC) [13]: 8 µg/mL; Antibacterial activity (MIC) (E. coli J3272 Tet sens.): > 32 µg/mL; Antibacterial activity (MIC) [14]: 8 µg/mL; Antibacterial activity (MIC) (E. coli UBMS 90-4 (tetM)): > 32 µg/mL |
| CN(C)c1cc(NC(=O)CN2CCOCC2)c(O)c2c1CC1CC3[C@H](N(C)C)C(O)=C(C(N)=O)C(=O)[C@@]3(O)C(O)=C1C2=O.Cl.Cl (stereo partly drawn) [NN, [7S-(7alpha,10aalpha)]-N-[9-(Aminocarbonyl)-4,7-bis(dimethylamino)-5,5a,6,6a,7,10,10a,12-octahydro-1,8,10a,11-tetrahydroxy-10,12-dioxo-2-naphthacenyl)-4-morpholineacetamide dihydrochloride] | > 32 µg/mL | 32 µg/mL | > 32 µg/mL | > 32 µg/mL | 0.5 µg/mL | 2 µg/mL | > 32 µg/mL | 32 µg/mL | 0.5 µg/mL | 2 µg/mL | > 32 µg/mL | > 32 µg/mL | 2 µg/mL | > 32 µg/mL | 32 µg/mL | 2 µg/mL | 2 µg/mL | > 32 µg/mL | > 32 µg/mL | > 32 µg/mL | Antibacterial activity (MIC) [9]: > 32 µg/mL; Antibacterial activity (MIC) [10]: 4 µg/mL; Antibacterial activity (MIC) (E. coli UBMS 89-1 (tetM)): 32 µg/mL; Antibacterial activity (MIC) [11]: > 32 µg/mL; Antibacterial activity (MIC) (E. coli J3272 TetD): 32 µg/mL; Antibacterial activity (MIC) (S. mariescens FDOR 8733): > 32 µg/mL; Antibacterial activity (MIC) (E. coli UBMS 88-1 (tetB)): > 32 µg/mL; Antibacterial activity (MIC) [12]: 2 µg/mL; Antibacterial activity (MIC) [13]: 2 µg/mL; Antibacterial activity (MIC) (E. coli J3272 Tet sens.): > 32 µg/mL; Antibacterial activity (MIC) [14]: 4 µg/mL |
